Activity calls are given as the source filed them.
Tests used:
Format in all cases: functional
[1] = target: T1, Short transient receptor potential channel 4 (Mus musculus, UniProt Q9QUQ5); test: mouse TRPC4 channel inhibitors, dose response, cell-based, HEK293 TRPC4/mu-opioid, Fluo-4 calcium (AID 434942);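 note: potency of inhibitors blocking the TRPC4 calcium response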
T1 sequence (Q9QUQ5 whole entry): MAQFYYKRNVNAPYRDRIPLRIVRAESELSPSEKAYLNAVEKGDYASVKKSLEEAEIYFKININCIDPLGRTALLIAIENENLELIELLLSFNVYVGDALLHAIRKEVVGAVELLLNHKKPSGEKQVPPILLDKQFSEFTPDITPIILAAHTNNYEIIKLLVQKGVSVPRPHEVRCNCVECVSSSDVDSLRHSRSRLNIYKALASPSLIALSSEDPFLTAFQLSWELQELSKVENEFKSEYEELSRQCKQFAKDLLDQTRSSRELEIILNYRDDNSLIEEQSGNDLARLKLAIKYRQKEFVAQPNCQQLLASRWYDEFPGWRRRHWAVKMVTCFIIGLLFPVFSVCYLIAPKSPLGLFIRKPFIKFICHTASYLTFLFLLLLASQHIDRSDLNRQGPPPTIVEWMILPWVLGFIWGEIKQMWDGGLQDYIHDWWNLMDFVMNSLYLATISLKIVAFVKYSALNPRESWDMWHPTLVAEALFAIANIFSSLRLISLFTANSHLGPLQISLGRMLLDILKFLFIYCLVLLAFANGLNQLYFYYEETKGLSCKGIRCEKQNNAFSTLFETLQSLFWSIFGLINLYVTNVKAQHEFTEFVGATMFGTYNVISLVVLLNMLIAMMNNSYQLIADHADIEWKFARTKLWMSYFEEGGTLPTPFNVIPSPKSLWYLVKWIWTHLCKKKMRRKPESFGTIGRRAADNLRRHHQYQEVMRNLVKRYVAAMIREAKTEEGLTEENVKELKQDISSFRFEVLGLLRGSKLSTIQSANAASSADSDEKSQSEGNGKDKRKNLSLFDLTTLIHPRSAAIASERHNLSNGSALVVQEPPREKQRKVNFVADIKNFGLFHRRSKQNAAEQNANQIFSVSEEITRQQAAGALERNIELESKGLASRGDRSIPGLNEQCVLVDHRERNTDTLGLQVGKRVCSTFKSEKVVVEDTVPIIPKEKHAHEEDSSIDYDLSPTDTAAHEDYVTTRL

[2] = target: T2, High affinity choline transporter 1 (Homo sapiens, UniProt Q9GZV3); test: CHT inhibitors, dose response, cell-based, 5-point CRC, membrane potential dye (AID 504840)
T2 sequence (Q9GZV3 whole entry): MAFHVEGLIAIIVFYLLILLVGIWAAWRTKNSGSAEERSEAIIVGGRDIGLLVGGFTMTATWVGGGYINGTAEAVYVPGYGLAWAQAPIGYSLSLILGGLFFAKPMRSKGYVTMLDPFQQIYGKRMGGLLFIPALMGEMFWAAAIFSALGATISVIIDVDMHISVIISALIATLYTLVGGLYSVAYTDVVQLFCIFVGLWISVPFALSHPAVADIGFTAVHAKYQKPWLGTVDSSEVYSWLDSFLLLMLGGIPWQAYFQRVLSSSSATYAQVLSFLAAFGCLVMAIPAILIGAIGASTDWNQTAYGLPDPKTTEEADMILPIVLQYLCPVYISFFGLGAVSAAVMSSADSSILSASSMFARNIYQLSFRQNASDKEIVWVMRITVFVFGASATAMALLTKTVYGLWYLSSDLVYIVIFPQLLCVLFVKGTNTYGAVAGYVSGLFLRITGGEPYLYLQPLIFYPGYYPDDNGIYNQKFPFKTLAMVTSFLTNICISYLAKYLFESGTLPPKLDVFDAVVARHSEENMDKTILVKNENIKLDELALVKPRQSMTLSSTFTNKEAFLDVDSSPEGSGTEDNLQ

[3] = tested on: BJ; test: cytotoxicity toward BJ-TERT fibroblasts, dose response, cell-based, RAS-independent, luminescence (AID 1933); conditions: Homo sapiens
[4] = cytotoxicity toward DRD oncogenic fibroblasts, dose response, cell-based, non-viral oncogenic, luminescence (AID 1934); conditions: Homo sapiens
[5] = Luminescence Cell-Based Dose Retest to Confirm Inhibitors of Cancer Stem Cells. [Related pubchem assays (depositor defined):AID2717, AID2721]; conditions: Homo sapiens
[6] = target: T3, Replicative DNA helicase DnaB (Mycobacterium tuberculosis, UniProt P9WMR3); test: DnaB intein splicing inhibitors, dose response, biochemical, cell-free fluorescence (AID 449749)
T3 sequence (P9WMR3 whole entry): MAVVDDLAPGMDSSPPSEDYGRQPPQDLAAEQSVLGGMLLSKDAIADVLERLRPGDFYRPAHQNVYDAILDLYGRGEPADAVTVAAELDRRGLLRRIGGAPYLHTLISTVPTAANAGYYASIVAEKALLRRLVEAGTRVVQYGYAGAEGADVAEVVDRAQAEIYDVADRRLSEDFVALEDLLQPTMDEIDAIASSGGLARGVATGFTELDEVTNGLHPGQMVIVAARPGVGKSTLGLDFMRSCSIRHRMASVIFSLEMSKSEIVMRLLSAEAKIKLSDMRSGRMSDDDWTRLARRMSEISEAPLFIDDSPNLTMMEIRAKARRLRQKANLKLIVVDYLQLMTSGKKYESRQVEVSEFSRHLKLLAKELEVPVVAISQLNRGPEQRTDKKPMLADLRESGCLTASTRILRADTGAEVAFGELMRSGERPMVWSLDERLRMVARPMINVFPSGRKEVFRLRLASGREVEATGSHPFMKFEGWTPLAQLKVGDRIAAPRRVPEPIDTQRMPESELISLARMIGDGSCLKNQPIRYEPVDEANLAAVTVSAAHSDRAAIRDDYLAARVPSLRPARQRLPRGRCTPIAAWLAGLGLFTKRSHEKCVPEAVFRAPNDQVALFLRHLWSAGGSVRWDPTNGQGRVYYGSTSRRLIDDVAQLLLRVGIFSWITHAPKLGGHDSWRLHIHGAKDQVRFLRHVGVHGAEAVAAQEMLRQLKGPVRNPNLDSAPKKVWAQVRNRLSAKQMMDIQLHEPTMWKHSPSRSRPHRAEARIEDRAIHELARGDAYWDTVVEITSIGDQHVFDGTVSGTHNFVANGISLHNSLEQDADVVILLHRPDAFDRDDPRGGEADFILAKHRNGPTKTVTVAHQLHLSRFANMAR

O=[N+]([O-])c1ccc(O)c(C2=NNC(c3ccccc3F)C2)c1 (stereo unspecified)
active: EC50 [1] 15 µM | IC50 [2] 15.1 µM

Cc1oc2c(c1C(=O)N1CCC(C)CC1)C(=O)c1ccccc1C2=O
active: EC50 [3] 17.6 µM | EC50 [4] 16.5 µM | AC50 [5] 6.94 µM | AC50 [6] 73.9 µM

From ChEMBL document CHEMBL1201862, “PubChem BioAssay data set” (2004)
